Assay: xn = mol fraction of the nth substance listed
Details: 101 kPa, Liquid; for viscosity: Falling or rolling sphere viscometry; for mass density: Vibrating tube method

OCC[n+]1ccccc1.[Br-] [1-(2-hydroxyethyl)pyridinium bromide] + O
Details	mass density [kg/m3]	viscosity [mPa·s]
298.15 K, x1 = 0.022	1071.4	1.138
298.15 K, x1 = 0.045	1131.4	1.415
298.15 K, x1 = 0.066	1177.3	1.761
298.15 K, x1 = 0.085	1211	2.174
298.15 K, x1 = 0.114	1256.4	2.918
298.15 K, x1 = 0.152	1296.4	4.134
298.15 K, x1 = 0.195	1334.4	6.391
298.15 K, x1 = 0.226	1356.7	8.964
298.15 K, x1 = 0.261	1377.5	11.93
303.15 K, x1 = 0.022	1069.5	1.04
303.15 K, x1 = 0.045	1129.2	1.268
303.15 K, x1 = 0.066	1174.8	1.576
303.15 K, x1 = 0.085	1208.3	1.937
303.15 K, x1 = 0.114	1251.9	2.577
303.15 K, x1 = 0.152	1293.5	3.62
303.15 K, x1 = 0.195	1331.4	5.528
303.15 K, x1 = 0.226	1353.6	7.799
303.15 K, x1 = 0.261	1374.3	10.25
308.15 K, x1 = 0.022	1067.5	0.947
308.15 K, x1 = 0.045	1126.8	1.148
308.15 K, x1 = 0.066	1172.2	1.424
308.15 K, x1 = 0.085	1205.7	1.744
308.15 K, x1 = 0.114	1247.7	2.309
308.15 K, x1 = 0.152	1290.5	3.233
308.15 K, x1 = 0.195	1328.4	4.908
308.15 K, x1 = 0.226	1350.4	6.784
308.15 K, x1 = 0.261	1371.2	8.888
313.15 K, x1 = 0.022	1065.2	0.867
313.15 K, x1 = 0.045	1124.3	1.046
313.15 K, x1 = 0.066	1169.6	1.294
313.15 K, x1 = 0.085	1202.9	1.581
313.15 K, x1 = 0.114	1244.9	2.082
313.15 K, x1 = 0.152	1287.5	2.894
313.15 K, x1 = 0.195	1325.3	4.33
313.15 K, x1 = 0.226	1347.3	5.9
313.15 K, x1 = 0.261	1368	7.704
318.15 K, x1 = 0.022	1062.7	0.8
318.15 K, x1 = 0.045	1121.8	0.96
318.15 K, x1 = 0.066	1166.9	1.184
318.15 K, x1 = 0.085	1200.1	1.44
318.15 K, x1 = 0.114	1241.9	1.887
318.15 K, x1 = 0.152	1284.5	2.604
318.15 K, x1 = 0.195	1322.2	3.868
318.15 K, x1 = 0.226	1344.2	5.148
318.15 K, x1 = 0.261	1364.8	6.721
323.15 K, x1 = 0.022	1060.2	0.741
323.15 K, x1 = 0.045	1119.1	0.886
323.15 K, x1 = 0.066	1164.1	1.086
323.15 K, x1 = 0.085	1197.2	1.32
323.15 K, x1 = 0.114	1238.9	1.721
323.15 K, x1 = 0.152	1281.4	2.36
323.15 K, x1 = 0.195	1319	3.478
323.15 K, x1 = 0.226	1341	4.527
323.15 K, x1 = 0.261	1361.6	5.895
328.15 K, x1 = 0.022	1057.8	0.692
328.15 K, x1 = 0.045	1116.2	0.82
328.15 K, x1 = 0.066	1161.1	1.008
328.15 K, x1 = 0.085	1194.2	1.215
328.15 K, x1 = 0.114	1235.9	1.578
328.15 K, x1 = 0.152	1278.3	2.149
328.15 K, x1 = 0.195	1315.9	3.137
328.15 K, x1 = 0.226	1337.8	4.03
328.15 K, x1 = 0.261	1358.4	5.207
333.15 K, x1 = 0.022	1055.5	0.645
333.15 K, x1 = 0.045	1113.1	0.766
333.15 K, x1 = 0.066	1158.1	0.933
333.15 K, x1 = 0.085	1191.2	1.126
333.15 K, x1 = 0.114	1232.8	1.451
333.15 K, x1 = 0.152	1275.2	1.969
333.15 K, x1 = 0.195	1312.7	2.833
333.15 K, x1 = 0.226	1334.6	3.615
333.15 K, x1 = 0.261	1355.2	4.632
338.15 K, x1 = 0.022	1053.3	0.608
338.15 K, x1 = 0.045	1111	0.716
338.15 K, x1 = 0.066	1155.7	0.869
338.15 K, x1 = 0.085	1187.8	1.045
338.15 K, x1 = 0.114	1229.7	1.344
338.15 K, x1 = 0.152	1272	1.809
338.15 K, x1 = 0.195	1309.5	2.599
338.15 K, x1 = 0.226	1331.4	3.284
338.15 K, x1 = 0.261	1352	4.101
343.15 K, x1 = 0.022	1051	0.571
343.15 K, x1 = 0.045	1108.4	0.674
343.15 K, x1 = 0.066	1153	0.816
343.15 K, x1 = 0.085	1184.6	0.976
343.15 K, x1 = 0.114	1226.5	1.257
343.15 K, x1 = 0.152	1268.8	1.696
343.15 K, x1 = 0.195	1306.3	2.37
343.15 K, x1 = 0.226	1328.2	2.945
343.15 K, x1 = 0.261	1348.7	3.732
348.15 K, x1 = 0.022	1048.8	0.538
348.15 K, x1 = 0.045	1105.8	0.634
348.15 K, x1 = 0.066	1150.3	0.763
348.15 K, x1 = 0.085	1181.8	0.911
348.15 K, x1 = 0.114	1223.1	1.197
348.15 K, x1 = 0.152	1265.5	1.605
348.15 K, x1 = 0.195	1303	2.228
348.15 K, x1 = 0.226	1324.9	2.693
348.15 K, x1 = 0.261	1345.5	3.372

Reference: the NIST ThermoML archive (doi:10.1016/j.fluid.2019.05.003)
